The record followed here is patent publication US8633218B2, “8-azabicyclo[3.2.1]oct-2-ene derivatives and their use as monoamine neurotransmitter re-uptake inhibitors” (Aniona APS, priority 2008, dated 2014).

Where a name gives a salt, the structure may show the parent alone.

Holding throughout (assay type): biochemical
Assay [1] relates to serotonine (5-HT) reuptake in synaptosomes. The assay is described as follows: Inhibition of 3H-5-HT reuptake in synaptosomes. The note with it: read-out: 5-HT-uptake IC50. The method, then:
(§1) Compounds were tested for their ability to inhibit the reuptake of the monoamine neurotransmitters dopamine (DA) noradrenaline (NA) and serotonine (5-HT) in synaptosomes as described in WO 97/16451 (NeuroSearch A/S).
(§2) The test values are given as IC50 (the concentration (μM) of the test substance which inhibits the specific binding of ^3H-DA, ^3H-NA, or ^3H-5-HT by 50%).

Assay [2] concerns dopamine (DA) reuptake in synaptosomes. The assay can be described thus: Inhibition of 3H-DA reuptake in synaptosomes. The note with it: read-out: DA-uptake IC50. Here is the method: as §1, §2
Assay [3] deals with noradrenaline (NA) reuptake in synaptosomes. The assay can be described thus: Inhibition of 3H-NA reuptake in synaptosomes. The note with it: read-out: NA-uptake IC50. The method, then:
as §1, §2

As for `COc1ccc2sc(C3=CC4CCC(C3)N4)cc2c1` (stereo not drawn) [Compound 2.1, 3-(5-Methoxy-benzo[b]thiophen-2-yl)-8-aza-bicyclo[3.2.1]oct-2-ene hydrochloric acid salt], the values for the IC50 in assay [1], in assay [2] and in assay [3] were 2.5 nM, 740 nM and 57 nM, respectively.

Regarding `Oc1ccc2sc(C3=CC4CCC(C3)N4)cc2c1` (stereo not drawn) [Compound 3.1, 2-(8-Aza-bicyclo[3.2.1]oct-2-en-3-yl)-benzo[b]thiophen-5-ol hydrochloric acid salt], the IC50 was 0.37 nM in assay [1], 94 nM in assay [2] and 4.3 nM in assay [3].

As usually defined, the IC50 is the point on the concentration scale where inhibition reaches its midpoint.
